Calls of active or inactive are those of the source. No cut-off for these calls is given here.
Columns and labels:
[1] = Selectivity ratio of substrate activity at PEPT1 (unknown origin) expressed in MDCK cells assessed as PEPT1 mediated drug uptake to drug uptake in MDCK cells
[2] = Half life of compound in PBS buffer at pH 7.4 at 200 uM by HPLC analysis; assay type: physicochemical
[3] = target: T1, Solute carrier family 15 member 1 (Homo sapiens, UniProt P46059); experiment: Substrate activity at PEPT1 (unknown origin) expressed in MDCK cells assessed as inhibition of gly-sar uptake incubated for 10 mins by HPLC/MS/MS analysis; assay type: cell-based
T1 sequence (P46059 whole entry): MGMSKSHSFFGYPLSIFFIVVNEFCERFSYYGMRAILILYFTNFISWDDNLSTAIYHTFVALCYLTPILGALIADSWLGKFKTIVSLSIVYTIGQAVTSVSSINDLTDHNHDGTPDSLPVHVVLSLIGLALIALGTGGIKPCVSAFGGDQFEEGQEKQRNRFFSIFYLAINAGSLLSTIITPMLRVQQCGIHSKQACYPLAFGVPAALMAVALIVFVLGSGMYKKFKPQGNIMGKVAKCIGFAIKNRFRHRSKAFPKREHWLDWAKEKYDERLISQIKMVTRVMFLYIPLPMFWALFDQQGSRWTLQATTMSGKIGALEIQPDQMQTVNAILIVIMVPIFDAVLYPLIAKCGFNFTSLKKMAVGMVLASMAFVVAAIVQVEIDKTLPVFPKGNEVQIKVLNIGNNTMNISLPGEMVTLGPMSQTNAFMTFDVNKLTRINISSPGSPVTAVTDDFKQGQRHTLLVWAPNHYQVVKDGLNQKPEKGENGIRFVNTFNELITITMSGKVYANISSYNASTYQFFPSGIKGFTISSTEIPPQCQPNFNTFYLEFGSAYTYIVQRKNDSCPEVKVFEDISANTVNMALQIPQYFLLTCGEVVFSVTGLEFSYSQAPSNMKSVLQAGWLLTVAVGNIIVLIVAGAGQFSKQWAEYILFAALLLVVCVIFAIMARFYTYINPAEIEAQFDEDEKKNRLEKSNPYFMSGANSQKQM

[4] = Half life of compound in human MDA-MB-231 cell homogenate; assay type: ADME, tissue-based
[5] = Half life of compound in human MIA PaCa-2 cell homogenate; assay type: ADME, tissue-based
[6] = target: T2, Sodium- and chloride-dependent neutral and basic amino acid transporter B(0+) (Homo sapiens, UniProt Q9UN76); experiment: Substrate activity at SLC6A14 (unknown origin) expressed in Xenopus laevis oocytes assessed as inhibition of glycine uptake incubated for 10 mins by HPLC/MS/MS analysis; assay type: cell-based, Oocyte
T2 sequence (Q9UN76 whole entry): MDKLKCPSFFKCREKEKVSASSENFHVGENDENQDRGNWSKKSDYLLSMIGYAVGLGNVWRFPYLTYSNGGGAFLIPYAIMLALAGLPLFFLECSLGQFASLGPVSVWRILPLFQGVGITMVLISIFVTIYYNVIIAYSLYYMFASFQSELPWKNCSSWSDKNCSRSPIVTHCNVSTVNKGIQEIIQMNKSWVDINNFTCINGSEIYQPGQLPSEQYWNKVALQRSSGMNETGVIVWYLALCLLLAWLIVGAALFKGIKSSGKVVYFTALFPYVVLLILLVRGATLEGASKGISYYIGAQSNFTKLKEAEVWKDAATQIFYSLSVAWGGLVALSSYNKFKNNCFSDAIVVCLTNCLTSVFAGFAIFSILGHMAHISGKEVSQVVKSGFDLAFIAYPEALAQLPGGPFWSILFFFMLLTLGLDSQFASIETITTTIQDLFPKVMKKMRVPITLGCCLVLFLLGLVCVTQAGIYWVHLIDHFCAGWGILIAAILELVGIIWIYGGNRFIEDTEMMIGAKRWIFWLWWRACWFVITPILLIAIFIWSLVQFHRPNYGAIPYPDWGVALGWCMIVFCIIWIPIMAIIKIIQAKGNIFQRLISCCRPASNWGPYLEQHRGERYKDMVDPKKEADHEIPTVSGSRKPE

MIA PaCa-2 = experiment: Potency index, ratio of FUdR GI50 to test compound GI50 for growth inhibition of human MIA-PaCa-2 cells; assay type: functional
thymidine phosphorylase = experiment: Half life of compound in thymidine phosphorylase buffer at 300 uM by HPLC analysis; assay type: physicochemical
ZR-75-1 = experiment: Potency index, ratio of FUdR GI50 to test compound GI50 for growth inhibition of human ZR-75-1 cells; assay type: functional
[7] = Half life in rat plasma at 200 uM measured up to 120 mins by HPLC-MS/MS analysis; assay type: ADME, cell-free
MDA-MB-231 = experiment: Potency index, ratio of FUdR GI50 to test compound GI50 for growth inhibition of human MDA-MB-231 cells; assay type: functional
[8] = target: T1, Solute carrier family 15 member 1; experiment: Substrate activity at PEPT1 (unknown origin) expressed in MDCK cells assessed as PEPT1 mediated drug uptake at 0.5 mM incubated for 10 mins by HPLC analysis; assay type: ADME, cell-based; conditions: 500 µM
[9] = Drug uptake in MDCK cells incubated for 10 mins by HPLC analysis; assay type: ADME, cell-based, Canis lupus familiaris; conditions: dog, 500 µM, dose 0.5 mM
[10] = target: T2, Sodium- and chloride-dependent neutral and basic amino acid transporter B(0+); experiment: Substrate activity at SLC6A14 (unknown origin) expressed in Xenopus laevis oocytes assessed as ABT0+ mediated drug uptake at 0.5 mM incubated for 10 mins by HPLC analysis; assay type: ADME, cell-based; conditions: oocyte, 500 µM
[11] = Drug uptake in Xenopus laevis oocytes at 0.5 mM incubated for 10 mins by HPLC analysis; assay type: ADME, cell-based; conditions: oocyte, 500 µM
[12] = Half life of compound in human ZR-75-1 cell homogenate; assay type: ADME, tissue-based
[13] = Selectivity ratio of substrate activity at SLC6A14 (unknown origin) expressed in Xenopus laevis oocytes assessed as ABT0+ mediated drug uptake to drug uptake in Xenopus laevis oocytes; set-up: species or system Oocyte
[14] = target: T3, Sodium- and chloride-dependent neutral and basic amino acid transporter B(0+) (Homo sapiens) (UniProt Q9UN76); experiment: Substrate activity at SLC6A14 (unknown origin) expressed in Xenopus laevis oocytes assessed as increase in ABT0+ mediated drug uptake at 1 mM in presence of Cl- ion by HPLC analysis; assay type: cell-based; conditions: Oocyte
T3 sequence (whole entry): T2 sequence (Q9UN76 whole entry)

[15] = target: T3, Sodium- and chloride-dependent neutral and basic amino acid transporter B(0+) (Homo sapiens); experiment: Substrate activity at SLC6A14 (unknown origin) expressed in Xenopus laevis oocytes assessed as inhibition of drug uptake at 0.5 mM incubated for 10 mins in presence of glycine by HPLC analysis relative to control; assay type: cell-based; conditions: Oocyte
[16] = target: T3, Sodium- and chloride-dependent neutral and basic amino acid transporter B(0+) (Homo sapiens); experiment: Substrate activity at SLC6A14 (unknown origin) expressed in Xenopus laevis oocytes assessed as increase in ABT0+ mediated drug uptake at 1 mM in presence of Na+ ion by HPLC analysis; assay type: cell-based; conditions: Oocyte

SMILES	Ratio [1]	half-life at 200 µM [2] [min]	IC50 [3] [µM]	half-life [4] [min]	half-life [5] [min]	IC50 [6] [µM]	RatioGI50 (MIA PaCa-2)	half-life at 300 µM (thymidine phosphorylase) [min]	RatioGI50 (ZR-75-1)	half-life at 200 µM [7] [min]	RatioGI50 (MDA-MB-231)	Drug uptake [8] [nmol/mg/min]	Drug uptake [9] [nmol/mg/min]	Drug uptake [10] [nmol/mg/min]	Drug uptake [11] [nmol/mg/min]	half-life [12] [min]	Ratio [13]	Activity [14]	inhibition [15] [%]	Activity [16]
N[C@@H](CCC(=O)O[C@H]1C[C@H](n2cc(F)c(=O)[nH]c2=O)O[C@@H]1CO)C(=O)O	1	183	13000	8.3	10.2	1840	7	289	7	97.4	7	< 0.04	< 0.04	1.04	0.28	7.9	3.71	–	–	–
CC(C)[C@H](N)C(=O)OC[C@H]1O[C@@H](n2cc(F)c(=O)[nH]c2=O)C[C@@H]1OC(=O)[C@@H](N)C(C)C	2.63	106	2240	10.1	8.4	2010	7	257	7	37.8	7	1.11	0.44	1.03	0.37	6.7	2.78	–	–	–
N[C@@H](CC(=O)O[C@H]1C[C@H](n2cc(F)c(=O)[nH]c2=O)O[C@@H]1CO)C(=O)O	1	179	13900	19.3	32.1	1570	7	278	7	124	7	< 0.04	< 0.04	1.89	0.36	24.2	5.25	–	–	–
N[C@@H](CCC(=O)OC[C@H]1O[C@@H](n2cc(F)c(=O)[nH]c2=O)C[C@@H]1O)C(=O)O	1	258	11500	17.3	20.1	1130	7	256	7	114	7	< 0.04	< 0.04	2.12	0.35	12.3	6.23	Active	50	Active
CC(C)[C@H](N)C(=O)O[C@H]1C[C@H](n2cc(F)c(=O)[nH]c2=O)O[C@@H]1CO	2.86	187	1890	14.9	12.2	1630	7	368	7	65.3	7	1.23	0.43	1.56	0.39	9.2	4	–	–	–
CC(C)[C@H](N)C(=O)OC[C@H]1O[C@@H](n2cc(F)c(=O)[nH]c2=O)C[C@@H]1O	4.34	203	1120	15.3	11.3	980	7	408	7	78.5	7	1.78	0.41	2.34	0.31	16.4	7.55	Active	50	Active
N[C@@H](CC(=O)OC[C@H]1O[C@@H](n2cc(F)c(=O)[nH]c2=O)C[C@@H]1OC(=O)C[C@H](N)C(=O)O)C(=O)O	1	98.2	–	9.3	11.3	2980	7	301	7	56.1	7	< 0.04	< 0.04	1.12	0.34	16.2	3.29	–	–	–
N[C@@H](CCC(=O)OC[C@H]1O[C@@H](n2cc(F)c(=O)[nH]c2=O)C[C@@H]1OC(=O)CC[C@H](N)C(=O)O)C(=O)O	1	109	–	21.1	17.5	2650	7	235	7	67.9	7	< 0.04	< 0.04	0.78	0.32	14.3	2.44	–	–	–

— ChEMBL document CHEMBL4665787, “Bifunctional and Unusual Amino Acid β- or γ-Ester Prodrugs of Nucleoside Analogues for Improved Affinity to ATB and Enhanced Metabolic Stability: An Application to Floxuridine” (J Med Chem, 2020)
